Earlier results on one molecule are cited in patent US20230320987A1, “LIPID NANOPARTICLES AND LIPOSOMES” (National Health Research Institutes, priority 2022, published 2023).

For series [1] the following is noted: after subcutaneous injection into a human body.

As to `Cc1cc(NC2CCN(C(=O)CCNCC(=O)O)CC2)nc(NCc2nc(CCCNCCCNC3CCCCC3)co2)n1` [CX-1, (3-{4-[2-({4-[3-(3-cyclohexylaminopropylamino)propyl]oxazol-2-ylmethyl}amino)-6-methyl-pyrimidin-4-ylamino]piperidin-1-yl}-3-oxopropylamino)acetic acid], the water solubility entry is “high”. For the same molecule, the half-life result in series [1] is recorded as “less than one”.
